Source: US20100130737A1, “Regulating Agent of GPR34 Receptor Function” (TAKEDA PHARMACEUTICAL COMPANY LIMITED, priority 2005, published 2010)

Compound	melting point [°C]
O=C(N[C@@H](Cc1ccc(OCc2ccoc2)cc1)C(=O)O)c1cc2cc(-c3ccc(Cl)cc3)ccc2s1 [Example C125, N-{[5-(4-Chlorophenyl)-1-benzothiophene-2-yl]carbonyl}-O-(3-furylmethyl) tyrosine]	172 to 173
O=C(O)CN(Cc1ccc(OCc2ccc(F)cc2)cc1)C(=O)c1cn2cc(-c3ccc(Cl)cc3)ccc2n1 [Example E13, N-{[6-(4-Chlorophenyl)imidazo[1,2-a]pyridin-2-yl]carbonyl}-N-{4-[(4-fluorobenzyl)oxy]benzyl}glycine]	206
O=C(CN1CCN(C(c2ccc(F)cc2)c2ccc(F)cc2)CC1)NC1(C(=O)O)Cc2ccc(-c3ccc(Cl)cc3)cc2C1 (centres unmarked) [Example B128, 2-[({4-[bis(4-Fluorophenyl)methyl]piperazine-1-yl)acetyl)amino]-5-(4-chlorophenyl)indan-2-carboxylic acid]	184
CS(=O)(=O)c1ccc(CC(=O)NC2(C(=O)O)Cc3ccc(-c4ccc(Cl)cc4)cc3C2)cc1 (centres unmarked) [Example B135, 5-(4-Chlorophenyl)-2-({[4-(methylsulfonyl)phenyl]acetyl}amino)indan-2-carboxylic acid]	216
N#Cc1ccc(COc2ccc(C[C@H](NC(=O)c3cc4ccc(-c5ccc(Cl)cc5)cc4o3)C(=O)O)cc2)cc1 [Example C160, N-{[6-(4-Chlorophenyl)-1-benzofuran-2-yl]carbonyl}-O-(4-cyanobenzyl)tyrosine]	204
O=C(Cc1ccc(OC2Cc3ccccc3C2)cc1)NC1(C(=O)O)Cc2ccc(-c3ccc(Cl)cc3)cc2C1 (centres unmarked) [Example B155, 5-(4-Chlorophenyl)-2-({[4-(2,3-dihydro-1H-inden-2-yloxy)phenyl]acetyl}amino)indan-2-carboxylic acid]	233 to 234
O=C(Cc1ccc(OCc2c(Cl)cccc2Cl)cc1)NC1(C(=O)O)Cc2ccc(-c3ccc(Cl)cc3)cc2C1 (centres unmarked) [Example B153]	204 to 205
O=C(N[C@@H](Cc1ccc(OCc2ccoc2)cc1)C(=O)O)c1cn2cc(-c3ccc(Cl)cc3)ccc2n1 [Example E31, N-{[6-(4-Chlorophenyl)imidazo[1,2-a]pyridin-2-yl]carbonyl}-O-(3-furylmethyl)tyrosine]	262
O=C(Cc1ccc(Oc2ccccc2)cc1)NC1(C(=O)O)Cc2ccc(-c3ccc(Cl)cc3)cc2C1 (centres unmarked) [Example B183, 5-(4-Chlorophenyl)-2-{[(4-phenoxyphenyl)acetyl]amino)indan-2-carboxylic acid]	227 to 228
O=C(N[C@@H](Cc1ccc(OCc2ccccc2)cc1)C(=O)O)c1ccc2nc(-c3ccc(Cl)cc3)c(Cl)n2c1 [Example E50, O-Benzyl-N-{[3-chloro-2-(4-chlorophenyl)imidazo[1,2-a]pyridin-6-yl]carbonyl}tyrosine]	241 to 243
Cc1c(C(=O)N[C@@H](Cc2ccc(OCc3ccsc3)cc2)C(=O)O)oc2cc(-c3ccc(Cl)cc3)ccc12 [Example C118, N-{[6-(4-Chlorophenyl)-3-methyl-1-benzofuran-2-yl]carbonyl}-O-(3-thienylmethyl)-L-tyrosine]	111 to 113
O=C(N[C@@H](Cc1ccc(OCc2ccccc2)cc1)C(=O)O)c1cn2ccc(-c3ccc(Cl)cc3)cc2n1 [Example E8, O-Benzyl-N-{[7-(4-chlorophenyl)imidazo[1,2-a]pyridin-2-yl]carbonyl}tyrosine]	255
O=C(N[C@@H](Cc1ccc(OCc2ccccc2)cc1)C(=O)O)c1cn2cc(/C=C/c3ccccc3)ccc2n1 [Example E34, O-Benzyl-N-({6-[(E)-2-phenylethenyl]imidazo[1,2-a]pyridin-2-yl}carbonyl)tyrosine]	262 to 263
COc1ccc(/C=C/c2ccc3nc(C(=O)N[C@@H](Cc4ccc(OCc5ccccc5)cc4)C(=O)O)cn3c2)cc1 [Example E43, O-Benzyl-N-({6-[(E)-2-(4-methoxyphenyl)ethenyl]imidazo[1,2-a]pyridin-2-yl}carbonyl)tyrosine]	262 to 263
O=C(N[C@@H](Cc1ccc(OCc2ccc(Cl)cc2)cc1)C(=O)O)c1cc2cc(-c3ccc(Cl)cc3)ccc2s1 [Example C135, O-(4-Chlorobenzyl)-N-{[5-(4-chlorophenyl)-1-benzothiophene-2-yl]carbonyl}tyrosine]	196 to 197
O=C(O)CNC(=O)C1(NC(=O)Cc2ccc(OCc3ccc(F)cc3)cc2)Cc2ccc(-c3ccc(Cl)cc3)cc2C1 (centres unmarked) [Example B149, N-({5-(4-Chlorophenyl)-2-[({4-[(4-fluorobenzyl)oxy]phenyl}acetyl)amino]-2,3-dihydro-1H-inden-2-yl}carbonyl)glycine]	209 to 210
Nc1cccc(COc2ccc(CC(=O)NC3(C(=O)O)Cc4ccc(-c5ccc(Cl)cc5)cc4C3)cc2)c1 (centres unmarked) [Example B192, 2-[({4-[(3-Aminobenzyl)oxy]phenyl}acetyl)amino]-5-(4-chlorophenyl)indan-2-carboxylic acid]	191 to 192
Cc1noc(C)c1COc1ccc(CC(=O)NC2(C(=O)O)Cc3ccc(-c4ccc(Cl)cc4)cc3C2)cc1 (centres unmarked) [Example B165]	200 to 201

Compound	melting point [°C]
O=C(Cc1ccc(OCc2ccc(F)cc2)cc1)NC1(c2nn[nH]n2)Cc2ccc(-c3ccc(Cl)cc3)cc2C1 (centres unmarked) [Example B191, N-[5-(4-Chlorophenyl)-2-(2H-tetrazol-5-yl)-2,3-dihydro-1H-inden-2-yl]-2-{4-[(4-fluorobenzyl)oxy]phenyl}acetamide]	108 to 110
CC(C)(C)OC(=O)c1cccc(COc2ccc(CC(=O)NC3(C(=O)O)Cc4ccc(-c5ccc(Cl)cc5)cc4C3)cc2)c1 (centres unmarked) [Example B187, 2-{[(4-{[3-(tert-Butoxycarbonyl)benzyl]oxy}phenyl)acetyl]amino}-5-(4-chlorophenyl)indan-2-carboxylic acid]	177 to 179
O=C(N[C@@H](Cc1ccc(OCc2ccc(C(F)(F)F)cc2)cc1)C(=O)O)c1cc2cc(-c3ccc(Cl)cc3)ccc2s1 [Example C138, N-{[5-(4-Chlorophenyl)-1-benzothiophene-2-yl]carbonyl}-O-[4-(trifluoromethyl)benzyl]tyrosine]	198
O=C(N[C@@H](Cc1ccc(F)cc1)C(=O)O)c1cn2cc(-c3ccc(Cl)cc3)ccc2n1 [Example E11, N-{[6-(4-Chlorophenyl)imidazo[1,2-a]pyridin-2-yl]carbonyl}-4-fluorophenylalanine]	266
O=C(N[C@@H](Cc1ccc(OCc2ccccc2)cc1)C(=O)O)c1cn2ccc(-c3ccc(Cl)cc3)cc2n1 [Example E56, O-Benzyl-N-{[7-(4-chlorophenyl)imidazo[1,2-a]pyridin-2-yl]carbonyl}-L-tyrosine]	248 to 249
O=C(O)CNC(=O)C1(NC(=O)Cc2ccc(OCc3ccccc3)cc2)Cc2ccc(-c3ccc(Cl)cc3)cc2C1 (centres unmarked) [Example B148, N-{[2-({[4-(Benzyloxy)phenyl]acetyl)amino)-5-(4-chlorophenyl)-2,3-dihydro-1H-inden-2-yl]carbonyl}glycine]	217 to 218
Cc1nc(COc2ccc(CC(=O)NC3(C(=O)O)Cc4ccc(-c5ccc(Cl)cc5)cc4C3)cc2)co1 (centres unmarked) [Example B156, 5-(4-Chlorophenyl)-2-[({4-[(2-methyl-1,3-oxazol-4-yl)methoxy]phenyl}acetyl)amino]indan-2-carboxylic acid]	187 to 189
N#Cc1ccc(COc2ccc(C[C@H](NC(=O)c3cc4cc(-c5ccc(Cl)cc5)ccc4s3)C(=O)O)cc2)cc1 [Example C136, N-{[5-(4-Chlorophenyl)-1-benzothiophene-2-yl]carbonyl)-O-(4-cyanobenzyl)tyrosine]	164
O=C(CSc1nc2ccccc2o1)NC1(C(=O)O)Cc2ccc(-c3ccc(Cl)cc3)cc2C1 (centres unmarked) [Example B169, 2-{[(1,3-Benzoxazol-2-ylthio)acetyl]amino}-5-(4-chlorophenyl)indan-2-carboxylic acid]	227 to 230
Cc1c(C(=O)N[C@@H](Cc2ccc(OCc3ccoc3)cc2)C(=O)O)oc2cc(-c3ccc(Cl)cc3)ccc12 [Example C119, N-{[6-(4-Chlorophenyl)-3-methyl-1-benzofuran-2-yl]carbonyl}-O-(3-furylmethyl)-L-tyrosine]	108 to 110
Cc1c(C(=O)N[C@H](Cc2ccc(OCc3ccccc3)cc2)C(=O)O)oc2cc(-c3ccc(Cl)cc3)ccc12 [Example C116, O-Benzyl-N-{[6-(4-chlorophenyl)-3-methyl-1-benzofuran-2-yl]carbonyl}-D-tyrosine]	113 to 114
O=C(O)CN(Cc1ccc(OCc2ccccc2)cc1)C(=O)c1cn2ccc(-c3ccc(Cl)cc3)cc2n1 [Example E52, N-[4-(Benzyloxy)benzyl]-N-{[7-(4-chlorophenyl)imidazo[1,2-a]pyridin-2-yl]carbonyl}glycine]	186
Cc1cccc(COc2ccc(C[C@H](NC(=O)c3cc4cc(-c5ccc(Cl)cc5)ccc4s3)C(=O)O)cc2)c1 [Example C127, N-{[5-(4-Chlorophenyl)-1-benzothiophene-2-yl]carbonyl}-O-(3-methylbenzyl)tyrosine]	192 to 193
O=C(Cc1ccc(-c2ccccc2)cc1)NC1(C(=O)O)Cc2ccc(-c3ccc(Cl)cc3)cc2C1 (centres unmarked) [Example B177, 2-[(Biphenyl-4-ylacetyl)amino]-5-(4-chlorophenyl)indan-2-carboxylic acid]	240 to 243
O=C(Cc1cccc(OCc2ccccc2)c1)NC1(C(=O)O)Cc2ccc(-c3ccc(Cl)cc3)cc2C1 (centres unmarked) [Example B181, 2-({[3-(Benzyloxy)phenyl]acetyl}amino)-5-(4-chlorophenyl)indan-2-carboxylic acid]	207
Cc1ccc(COc2ccc(C[C@H](NC(=O)c3cc4cc(C#Cc5ccccc5)ccc4s3)C(=O)O)cc2)cc1 [Example C140, O-(4-Methylbenzyl)-N-{[5-(phenylethynyl)-1-benzothiophene-2-yl]carbonyl}tyrosine]	204 to 207
CC(C)(C)OC(=O)c1ccccc1COc1ccc(CC(=O)NC2(C(=O)O)Cc3ccc(-c4ccc(Cl)cc4)cc3C2)cc1 (centres unmarked) [Example B189, 2-{[(4-{[2-(tert-Butoxycarbonyl)benzyl]oxy}phenyl)acetyl]amino}-5-(4-chlorophenyl)indan-2-carboxylic acid]	170 to 171
